We go through two compounds from patent publication US6770661B2, “Aryl substituted pyridines and their use” (Euro-Celtique S.A., priority 2001, dated 2004).

The target of the test is rBIIa/beta 1 sodium channels expressed in Xenopus oocytes (Rattus norvegicus, UniProt P04775). Description: Electrophysiological in vitro assay, two-electrode voltage clamp, sodium channel blockade. The format is cell-based. The note with it: apparent inhibition constant for the inactivated state, from single point inhibition data; holding potential −120 mV, 4 second depolarization; read-out: RBIIA/β1 Ki. On the procedure: Electrophysiological Assay:
Electrophysiological Assay was used to measure potencies of compounds of the present invention rBIIa/beta 1 sodium channels expressed in Xenopus oocytes.
Preparation of cRNA encoding cloned rat brain type IIa (rBIIa) and beta 1 (β1): cDNA clones encoding the rat brain beta 1 subunit were cloned in house using standard methods, and mRNA were prepared by standard methods. mRNA encoding rBIIa was provided by Dr. A. Golden (UC Irvine). The mRNAs were diluted and stored at −80° C. in 1 μL aliquots until injection. […]
Electrophysiology: Membrane current responses were recorded in frog Ringer solution containing 115 mM NaCl, 2 mM KCl, 1.8 mM CaCl2, 5 mM HEPES, pH 7.4. […]
Voltage protocols for evoking sodium channel currents: The standard holding potential for whole oocyte clamp was −120 mV. […] Peak currents were measured as the maximum negative current after depolarizing voltage steps. […]
The purpose was to find compounds that are state dependent modifiers of neuronal sodium channels. […] Sodium currents were measured at this test pulse before and after the application of the tested compound. Data was acquired using pClamp 8.0 software and analyzed with clampfit software (Axon instruments). […]
(Two-electrode voltage clamp holds a large cell at a set potential and records current.)

rBIIa/beta 1 sodium channels expressed in Xenopus oocytes, sequence (P04775 whole entry): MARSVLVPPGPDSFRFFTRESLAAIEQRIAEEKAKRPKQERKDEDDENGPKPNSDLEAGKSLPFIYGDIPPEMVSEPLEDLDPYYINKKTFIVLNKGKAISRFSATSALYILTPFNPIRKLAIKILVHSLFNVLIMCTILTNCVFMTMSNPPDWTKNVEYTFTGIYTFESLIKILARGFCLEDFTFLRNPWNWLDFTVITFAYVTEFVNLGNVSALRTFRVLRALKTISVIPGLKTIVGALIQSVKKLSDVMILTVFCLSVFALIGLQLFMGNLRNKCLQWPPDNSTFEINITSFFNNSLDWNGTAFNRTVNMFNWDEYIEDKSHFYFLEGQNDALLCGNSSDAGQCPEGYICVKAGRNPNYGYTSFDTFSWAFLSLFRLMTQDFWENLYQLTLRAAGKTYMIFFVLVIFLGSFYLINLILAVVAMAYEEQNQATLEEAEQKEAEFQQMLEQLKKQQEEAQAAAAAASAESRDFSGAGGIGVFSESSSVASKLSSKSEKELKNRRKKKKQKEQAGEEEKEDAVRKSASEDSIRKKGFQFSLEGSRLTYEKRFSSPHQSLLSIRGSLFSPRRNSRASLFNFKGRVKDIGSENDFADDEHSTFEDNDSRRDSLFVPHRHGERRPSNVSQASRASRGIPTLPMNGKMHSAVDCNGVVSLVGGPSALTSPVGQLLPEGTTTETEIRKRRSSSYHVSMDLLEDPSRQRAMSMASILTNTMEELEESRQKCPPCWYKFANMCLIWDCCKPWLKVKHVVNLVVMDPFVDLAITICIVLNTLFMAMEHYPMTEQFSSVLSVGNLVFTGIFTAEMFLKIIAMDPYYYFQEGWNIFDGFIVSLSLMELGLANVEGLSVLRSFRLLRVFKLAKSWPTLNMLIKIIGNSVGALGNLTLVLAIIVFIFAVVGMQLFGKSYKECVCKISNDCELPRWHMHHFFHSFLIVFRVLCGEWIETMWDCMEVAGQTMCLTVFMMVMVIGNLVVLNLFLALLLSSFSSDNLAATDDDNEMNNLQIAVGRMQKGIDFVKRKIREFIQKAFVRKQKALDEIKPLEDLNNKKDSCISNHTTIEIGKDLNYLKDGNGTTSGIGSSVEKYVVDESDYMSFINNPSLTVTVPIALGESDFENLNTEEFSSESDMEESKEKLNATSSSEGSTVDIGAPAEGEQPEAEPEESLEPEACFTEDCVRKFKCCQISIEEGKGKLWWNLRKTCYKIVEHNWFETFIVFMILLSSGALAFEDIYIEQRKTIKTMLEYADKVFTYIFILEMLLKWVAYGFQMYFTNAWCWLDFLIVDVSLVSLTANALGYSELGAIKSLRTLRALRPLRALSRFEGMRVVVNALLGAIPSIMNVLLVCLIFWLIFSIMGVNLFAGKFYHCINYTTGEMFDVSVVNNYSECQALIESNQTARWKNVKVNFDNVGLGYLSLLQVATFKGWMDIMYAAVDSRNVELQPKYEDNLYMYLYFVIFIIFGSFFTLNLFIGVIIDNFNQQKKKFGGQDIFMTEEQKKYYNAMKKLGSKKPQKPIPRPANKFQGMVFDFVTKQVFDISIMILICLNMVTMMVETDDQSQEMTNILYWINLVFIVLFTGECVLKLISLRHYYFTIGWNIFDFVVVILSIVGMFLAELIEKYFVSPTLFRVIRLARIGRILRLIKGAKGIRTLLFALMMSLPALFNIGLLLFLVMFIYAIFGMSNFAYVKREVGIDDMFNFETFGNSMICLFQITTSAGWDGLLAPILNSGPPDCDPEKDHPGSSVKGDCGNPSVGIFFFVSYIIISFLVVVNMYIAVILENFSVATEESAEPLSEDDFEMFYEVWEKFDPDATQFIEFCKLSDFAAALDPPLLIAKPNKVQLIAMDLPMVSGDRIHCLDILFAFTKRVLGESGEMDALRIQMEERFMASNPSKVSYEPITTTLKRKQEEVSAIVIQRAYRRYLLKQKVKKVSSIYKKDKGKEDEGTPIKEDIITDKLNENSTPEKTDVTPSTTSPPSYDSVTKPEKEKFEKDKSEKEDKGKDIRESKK
rBIIa/beta 1 sodium channels expressed in Xenopus oocytes, sequence (Q00954 19-218 partner): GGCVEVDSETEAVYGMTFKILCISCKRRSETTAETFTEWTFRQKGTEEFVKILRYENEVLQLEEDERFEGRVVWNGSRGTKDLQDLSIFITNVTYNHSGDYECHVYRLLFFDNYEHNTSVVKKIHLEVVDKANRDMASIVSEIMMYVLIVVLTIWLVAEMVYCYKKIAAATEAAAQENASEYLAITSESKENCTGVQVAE

`Cc1cc(OCCN2CCCCC2)cc(-c2ccc(Oc3ccc(F)cc3)cc2)n1` [2-[4-(4-Fluorophenoxy)phenyl]-6-methyl-4-[2-(N-piperidinyl)ethoxy]-pyridine]: the Ki amounted to 0.18 µM. In the case of `NC(=O)c1cc(N2CCOCC2)cc(-c2ccc(Oc3ccc(F)cc3)cc2)n1` [2-[4-(4-Fluorophenoxy)phenyl]-4-N-morpholinylpyridine-6-carboxamide] it was 0.29 µM.
